According to patent US20250019401A1, “ANTIMICROBIAL PEPTIDE BOLESPLEENIN OF BOLEOPHTHALMUS PECTINIROSTRIS AND APPLICATION THEREOF” (Xiamen University, priority 2023, published 2025):
Where a SMILES comes first, the peptide text is derived from it.

How the values were obtained:
Format in all cases: cell-based
[1] = system: Staphylococcus aureus
From the text: (§1) Bacterial strains involved in Embodiment 2 are as follows: Staphylococcus aureus, Acinetobacter baumannii, Escherichia coli, Enterococcus faecium, Enterococcus faecalis, Pseudomonas aeruginosa, Cryptococcus neoformans, Fusarium oxysporum, Aspergillus flavus, and Fusarium solani.
(§2) The bacterial strains are purchased from the China General Microbiological Culture Collection Center (CGMCC).
(§3) A specific analysis method of this embodiment is as follows:
(§4) (1) The conserved strains are coated on a nutrient broth plate, a Yeast Extract Peptone Dextrose (YPD) plate, or a potato dextrose plate and are inverted and incubated for 1-7 days.
(§5) (2) Colonies are picked from the plates, inoculated on a slant with a corresponding medium, continually incubated for 1-7 days, and washed down from the slant with corresponding medium with 10 mMol/L (mM) of sodium phosphate buffer (pH=7.4), and concentrations of suspensions of the bacteria or suspensions of the fungi are adjusted. The suspensions of the bacteria are diluted so that final concentrations are 5×10^5 CFU/mL. Mold spores of the suspensions of the fungi are counted under an optical microscope using a hemocyte counting plate, and concentrations of mold spores are adjusted to final concentrations of 5×10^4 spores/mL.
(§6) (3) Powder of the synthesized antimicrobial peptide Bolespleenin is dissolved in sterilized distillation-distillation H2O (ddH2O), filtered through a 0.22 μm filter membrane, and concentrations of the antimicrobial peptide Bolespleenin are then diluted to 3 μM, 6 μM, 12 μM, 24 μM, 48 μM, 96 μM, and 192 μM, and placed on ice for use.
(§7) (4) A blank control group, a negative control group, and an experimental group of each of the bacteria and the fungi to be tested are set on 96-well cell culture plates, and each of the blank control group, the negative control group, and the experimental group has three parallel samples.
(§8) The blank control group a: 50 μL of the antimicrobial peptide Bolespleenin with 50 μL of the corresponding medium;
(§9) The negative control group b: 50 μL of the sterilized ddH2O with 50 μL of each of the suspensions of the bacteria or the suspensions of the fungi; and
(§10) The experimental group c: 50 μL of the antimicrobial peptide Bolespleenin with 50 μL of each of the suspensions of the bacteria or the suspensions of the fungi.
(§11) (5) The 96-well cell culture plates are plated in an incubator at 28° C. and incubated for 1-2 days, and MIC results of the experimental group are observed. The experimental group is mixed by blowing, an appropriate amount of each of the suspensions of the bacteria or the suspensions of the fungi is sucked up, added dropwise onto the plate with the corresponding medium, and inverted and incubated at an appreciate temperature for 1-2 days, and MBC results are observed.

[2] = system: Pseudomonas aeruginosa
From the text: as §1, §2, §3, §4, §5, §6, §7, §8, §9, §10, §11

[3] = system: Fusarium oxysporum
From the text: as §1, §2, §3, §4, §5, §6, §7, §8, §9, §10, §11

[4] = system: Aspergillus flavus
From the text: as §1, §2, §3, §4, §5, §6, §7, §8, §9, §10, §11

[5] = system: Acinetobacter baumannii
From the text: as §1, §2, §3, §4, §5, §6, §7, §8, §9, §10, §11

[6] = system: Enterococcus faecium
From the text: as §1, §2, §3, §4, §5, §6, §7, §8, §9, §10, §11

[7] = system: Escherichia coli
From the text: as §1, §2, §3, §4, §5, §6, §7, §8, §9, §10, §11

[8] = system: Fusarium solani
From the text: as §1, §2, §3, §4, §5, §6, §7, §8, §9, §10, §11

[9] = system: Enterococcus faecalis
From the text: as §1, §2, §3, §4, §5, §6, §7, §8, §9, §10, §11

[10] = system: Cryptococcus neoformans
From the text: as §1, §2, §3, §4, §5, §6, §7, §8, §9, §10, §11

## CC[C@H](C)[C@H](NC(=O)[C@@H](N)CC(C)C)C(=O)NCC(=O)N[C@@H](CC(C)C)C(=O)N[C@@H](Cc1ccc(O)cc1)C(=O)N[C@@H](CC(C)C)C(=O)N[C@@H](CC(C)C)C(=O)N[C@@H](Cc1c[nH]cn1)C(=O)N[C@@H](CCCNC(=N)N)C(=O)N[C@@H](CCCNC(=N)N)C(=O)N[C@@H](CCCNC(=N)N)C(=O)N[C@@H](CCCNC(=N)N)C(=O)N[C@@H](CCCNC(=N)N)C(=O)N[C@@H](Cc1c[nH]cn1)C(=O)O [Bolespleenin, Leu-Ile-Gly-Leu-Tyr-Leu-Leu-His-Arg-Arg-Arg-Arg-Arg-His] (H-LIGLYLLHRRRRRH-OH)
[1]
  MBC (a-b): 1.5 to 3 µM
  MIC (a-b): <1.5 µM
[2]
  MBC (a-b): 1.5 to 3 µM
  MIC (a-b): <1.5 µM
[3]
  MBC (a-b): 3 to 6 µM
  MIC (a-b): 3 to 6 µM
[4]
  MBC (a-b): 24 to 48 µM
  MIC (a-b): 6 to 12 µM
[5]
  MBC (a-b): 1.5 to 3 µM
  MIC (a-b): 1.5 to 3 µM
[6]
  MBC (a-b): 1.5 to 3 µM
  MIC (a-b): 1.5 to 3 µM
[7]
  MBC (a-b): 6 to 12 µM
  MIC (a-b): 3 to 6 µM
[8]
  MBC (a-b): 3 to 6 µM
  MIC (a-b): 3 to 6 µM
[9]
  MBC (a-b): 3 to 6 µM
  MIC (a-b): 3 to 6 µM
[10]
  MBC (a-b): <1.5 µM
  MIC (a-b): <1.5 µM
